{"source": "patent US12617818B2", "about": "“Compositions and methods for modulating myosin subfragment-2 coiled coil stability and methods for using them” (UNIVERSITY OF NORTH TEXAS, priority 2020, dated 2026)", "biological_target": "T1, cardiac muscle myosin S2 peptide wild-type (MYH7) (Homo sapiens, UniProt P12883)", "T1 construct": "The 19 residue peptide was chemically synthesized; purchased BioSynthesis; Inc; host or cells: chemical synthesis", "assay": "FRET of cardiac muscle myosin S2 peptide dimer with anti-S2 peptides", "type": "binding", "conditions": "Cardiac peptide with Stabilizer", "from_the_text": "A small region of myosin subfragment 2 (S2) region of human β-cardiac myosin (MYH7) was selected to be synthesized by BioSynthesis; Inc. The region was selected based on mutations found within this region causing Familial hypertrophic cardiomyopathy (FHC) (Richard et al., 2003). The mutations are located within proximal region of myosin S2 specifically region of 921-939 (FIG. 7). Myosin S2 is an intrinsically unstable coiled coil and the sequence of this region was acquired from Protein Data Bank (PDB). The 19 residue peptide was chemically synthesized. Generated amino acid sequence used is as follow:\nChelate-lanthanide complex was utilized as the donor probe, which is composed of a lanthanide, an antenna, and a chelate. Organic chromophore antenna ([…]) will absorb a photon of light, and it will transfer energy to lanthanide ion (terbium III). This probe excites at 248 nm and emits at 547 nm.\nFluorescein was used as the acceptor probe. […]\nIn this experiment, luminescence spectrometer, AMNICO-BOWMAN SERIES 2 SPECTROMETER™, was used to detect resonance energy transfer. […] Emission signal generated from decay of molecules was detected by a photomultiplier tube, which contains proper color filters to detect the emitted photons.\nFRET measured the dissociation constant (binding affinity) between the myosin S2 dimers and the anti-S2 peptides. […]"}
{"smiles": "C[C@H](NC(=O)[C@H](CCCCN)NC(=O)[C@H](Cc1ccccc1)NC(=O)[C@H](CCCCN)NC(=O)[C@H](CCCCN)NC(=O)[C@H](CCCCN)NC(=O)[C@H](CCCCN)NC(=O)[C@H](CCCCN)NC(=O)[C@H](CCCCN)NC(=O)[C@H](CCCCN)NC(=O)[C@@H](N)CCCCN)C(=O)N[C@@H](CCCCN)C(=O)N[C@@H](CCCCN)C(=O)N[C@@H](CCCCN)C(=O)N[C@@H](CCCCN)C(=O)N[C@@H](CCCCN)C(=O)N[C@@H](CCCCN)C(=O)O", "note": "[Stabilizer]", "values": [{"measurement": "TD (donor lifetime without acceptor)", "result": "1.73E−03"}]}
